# Measurements published in ChEMBL document CHEMBL1201862, “PubChem BioAssay data set” (2004).
#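 Where inhibition never reached the appropriate level, the endpoint shown equals the highest concentration tested. Otherwise, values were interpolated linearly from a five-concentration, 48-hour dose response in 96-well plates. GI50 is the concentration that inhibits growth by half.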 Calls of active or inactive are those of the source. Rule as the data show it: active = GI50 up to about 1.1 µM and inactive = higher.
# Tests used:
# Assay in all cases: growth of human tumour cells (NCI), 48 h
# SNB-75 = system: SNB-75
# OVCAR-4 = system: OVCAR-4
# M14 = system: M14
# SF-295 = system: SF-295
# OVCAR-5 = system: OVCAR-5
# SF-539 = system: SF-539
# RPMI-8226 = system: RPMI-8226
# CCRF-CEM = system: CCRF-CEM
# HOP-92 = system: HOP-92
# A549 = system: A549
# NCI-H460 = system: NCI-H460
# EKVX = system: EKVX
# K562 = system: K562
# HT-29 = system: HT-29
# KM12 = system: KM12
# HCC 2998 = system: HCC 2998
# NCI/ADR-RES = system: NCI/ADR-RES
# SR = system: SR
# HL-60 = system: HL-60
# U-251 = system: U-251
# HCT-15 = system: HCT-15
# T47D = system: T47D
# CAKI-1 = system: CAKI-1
# DU-145 = system: DU-145
# SK-MEL-5 = system: SK-MEL-5
# HCT-116 = system: HCT-116
# UACC-62 = system: UACC-62
# LOX IMVI = system: LOX IMVI
# ACHN = system: ACHN
# COLO 205 = system: COLO 205
# BT-549 = system: BT-549
# OVCAR-8 = system: OVCAR-8
# SNB-19 = system: SNB-19
# SW-620 = system: SW-620
# MDA-MB-435 = system: MDA-MB-435
# SK-MEL-28 = system: SK-MEL-28
# Malme-3M = system: Malme-3M
# MCF7 = system: MCF7
# SK-OV-3 = system: SK-OV-3
# TK-10 = system: TK-10
# UACC-257 = system: UACC-257
# A498 = system: A498
# IGROV-1 = system: IGROV-1
# OVCAR-3 = system: OVCAR-3
# RXF 393 = system: RXF 393
# MDA-MB-231 = system: MDA-MB-231
# SK-MEL-2 = system: SK-MEL-2
# Hs-578T = system: Hs-578T
# UO-31 = system: UO-31
# SN12C = system: SN12C
# NCI-H23 = system: NCI-H23
# HOP-62 = system: HOP-62
# PC-3 = system: PC-3
# SF-268 = system: SF-268
# NCI-H226 = system: NCI-H226
# MDA-N = system: MDA-N
# NCI-H522 = system: NCI-H522
# 786-0 = system: 786-0
# MOLT-4 = system: MOLT-4
structure (smiles),measurement,setting,value
O=C1C=CC2(C=C1)O[C@H](Cc1ccccc1)[C@@H](Cc1ccccc1)O2,GI50,SNB-75,2.91 µM (inactive)
same,GI50,OVCAR-4,0.347 µM (active)
same,GI50,M14,0.653 µM (active)
same,GI50,SF-295,2.17 µM (inactive)
same,GI50,OVCAR-5,0.281 µM (active)
same,GI50,SF-539,0.37 µM (active)
same,GI50,RPMI-8226,0.177 µM (active)
same,GI50,CCRF-CEM,0.102 µM (active)
same,GI50,HOP-92,1.01 µM (active)
same,GI50,A549,4.62 µM (inactive)
same,GI50,NCI-H460,8.79 µM (inactive)
same,GI50,EKVX,0.355 µM (active)
same,GI50,K562,0.388 µM (active)
same,GI50,HT-29,0.964 µM (active)
same,GI50,KM12,1.69 µM (inactive)
same,GI50,HCC 2998,2.64 µM (inactive)
same,GI50,NCI/ADR-RES,0.303 µM (active)
same,GI50,SR,0.11 µM (active)
same,GI50,HL-60,1.28 µM (inactive)
same,GI50,U-251,1.05 µM (active)
same,GI50,HCT-15,0.243 µM
same,GI50,T47D,0.44 µM (active)
same,GI50,CAKI-1,0.484 µM (active)
same,GI50,DU-145,1.26 µM (inactive)
same,GI50,SK-MEL-5,0.568 µM (active)
same,GI50,HCT-116,0.1 µM (active)
same,GI50,UACC-62,1.66 µM (inactive)
same,GI50,LOX IMVI,0.223 µM (active)
same,GI50,ACHN,0.279 µM (active)
same,GI50,COLO 205,1.55 µM (inactive)
same,GI50,BT-549,0.201 µM (active)
same,GI50,OVCAR-8,0.193 µM (active)
same,GI50,SNB-19,2.11 µM (inactive)
same,GI50,SW-620,0.137 µM (active)
same,GI50,MDA-MB-435,1.31 µM (inactive)
same,GI50,SK-MEL-28,0.887 µM (active)
same,GI50,Malme-3M,1.48 µM (inactive)
same,GI50,MCF7,0.256 µM (active)
same,GI50,SK-OV-3,5.85 µM (inactive)
same,GI50,TK-10,0.506 µM (active)
same,GI50,UACC-257,1.28 µM (inactive)
same,GI50,A498,5.74 µM (inactive)
same,GI50,IGROV-1,0.218 µM (active)
same,GI50,OVCAR-3,0.298 µM (active)
same,GI50,RXF 393,0.26 µM (active)
same,GI50,MDA-MB-231,1.12 µM (active)
same,GI50,SK-MEL-2,1.41 µM (inactive)
same,GI50,Hs-578T,0.716 µM (active)
same,GI50,UO-31,0.258 µM (active)
same,GI50,SN12C,0.665 µM (active)
same,GI50,NCI-H23,1.16 µM (inactive)
same,GI50,HOP-62,1.15 µM (inactive)
same,GI50,PC-3,0.873 µM (active)
same,GI50,SF-268,0.755 µM (active)
same,GI50,NCI-H226,0.255 µM (active)
same,GI50,MDA-N,0.246 µM (active)
same,GI50,NCI-H522,0.174 µM (active)
CCOP(=O)(OCC)C(NC(=O)OCC(Cl)(Cl)Cl)n1nnc(C(=O)OC)c1C(=O)OC (centres undefined),GI50,SNB-75,> 100 µM (inactive)
same,GI50,OVCAR-4,> 100 µM (inactive)
same,GI50,M14,> 100 µM (inactive)
same,GI50,SF-295,> 100 µM (inactive)
same,GI50,SF-539,> 100 µM (inactive)
same,GI50,RPMI-8226,> 100 µM (inactive)
same,GI50,CCRF-CEM,> 100 µM (inactive)
same,GI50,HOP-92,> 100 µM (inactive)
same,GI50,A549,> 100 µM (inactive)
same,GI50,NCI-H460,> 100 µM (inactive)
same,GI50,EKVX,> 100 µM (inactive)
same,GI50,K562,> 100 µM (inactive)
same,GI50,786-0,> 100 µM (inactive)
same,GI50,HT-29,> 100 µM (inactive)
same,GI50,KM12,> 100 µM (inactive)
same,GI50,HCC 2998,> 100 µM (inactive)
same,GI50,NCI/ADR-RES,> 100 µM (inactive)
same,GI50,SR,> 100 µM (inactive)
same,GI50,HL-60,> 100 µM (inactive)
same,GI50,U-251,> 100 µM (inactive)
same,GI50,HCT-15,> 100 µM
same,GI50,T47D,> 100 µM (inactive)
same,GI50,CAKI-1,> 100 µM (inactive)
same,GI50,DU-145,> 100 µM (inactive)
same,GI50,SK-MEL-5,> 100 µM (inactive)
same,GI50,HCT-116,> 100 µM (inactive)
same,GI50,UACC-62,> 100 µM (inactive)
same,GI50,MOLT-4,> 100 µM (inactive)
same,GI50,LOX IMVI,> 100 µM (inactive)
same,GI50,ACHN,> 100 µM (inactive)
same,GI50,COLO 205,> 100 µM (inactive)
same,GI50,BT-549,> 100 µM (inactive)
same,GI50,OVCAR-8,> 100 µM (inactive)
same,GI50,SNB-19,> 100 µM (inactive)
same,GI50,SW-620,> 100 µM (inactive)
same,GI50,MDA-MB-435,> 100 µM (inactive)
same,GI50,SK-MEL-28,> 100 µM (inactive)
same,GI50,Malme-3M,> 100 µM (inactive)
same,GI50,MCF7,> 100 µM (inactive)
same,GI50,SK-OV-3,> 100 µM (inactive)
same,GI50,TK-10,> 100 µM (inactive)
same,GI50,UACC-257,> 100 µM (inactive)
same,GI50,A498,> 100 µM (inactive)
same,GI50,IGROV-1,> 100 µM (inactive)
same,GI50,OVCAR-3,> 100 µM (inactive)
same,GI50,RXF 393,> 100 µM (inactive)
same,GI50,MDA-MB-231,> 100 µM (inactive)
same,GI50,SK-MEL-2,> 100 µM (inactive)
same,GI50,Hs-578T,> 100 µM (inactive)
same,GI50,UO-31,> 100 µM (inactive)
same,GI50,SN12C,> 10 µM (inactive)
same,GI50,NCI-H23,> 100 µM (inactive)
same,GI50,HOP-62,> 100 µM (inactive)
same,GI50,PC-3,77.8 µM (inactive)
same,GI50,SF-268,> 100 µM (inactive)
same,GI50,NCI-H226,> 100 µM (inactive)
same,GI50,MDA-N,> 100 µM (inactive)
same,GI50,NCI-H522,> 100 µM (inactive)
CCCNC1=C2CC(C)CC(OC)[C@@H](O)[C@H](C)/C=C(\C)C(OC(N)=O)C(OC)/C=C\C=C(/C)C(=O)NC(=CC1=O)C2=O (some centres undefined),GI50,SNB-75,0.318 µM (active)
same,GI50,OVCAR-4,26.6 µM (inactive)
same,GI50,M14,0.561 µM (active)
same,GI50,SF-295,0.222 µM (active)
same,GI50,OVCAR-5,0.0311 µM (active)
same,GI50,SF-539,0.698 µM (active)
same,GI50,RPMI-8226,0.762 µM (active)
same,GI50,CCRF-CEM,0.273 µM (active)
same,GI50,HOP-92,0.124 µM (active)
same,GI50,A549,0.0847 µM (active)
same,GI50,NCI-H460,0.0685 µM (active)
same,GI50,EKVX,3.36 µM (inactive)
same,GI50,K562,0.141 µM (active)
same,GI50,786-0,0.443 µM (active)
same,GI50,HT-29,0.0101 µM (active)
same,GI50,KM12,0.0362 µM (active)
same,GI50,HCC 2998,0.264 µM (active)
same,GI50,NCI/ADR-RES,3.31 µM (inactive)
same,GI50,SR,0.31 µM (active)
same,GI50,HL-60,0.214 µM (active)
same,GI50,U-251,0.579 µM (active)
same,GI50,HCT-15,0.321 µM
same,GI50,T47D,0.476 µM (active)
same,GI50,CAKI-1,11.5 µM (inactive)
same,GI50,DU-145,0.111 µM (active)
same,GI50,SK-MEL-5,0.0637 µM (active)
same,GI50,HCT-116,0.231 µM (active)
same,GI50,UACC-62,0.054 µM (active)
same,GI50,MOLT-4,0.332 µM (active)
same,GI50,LOX IMVI,0.103 µM (active)
same,GI50,ACHN,0.502 µM (active)
same,GI50,COLO 205,0.0319 µM (active)
same,GI50,BT-549,12.3 µM (inactive)
same,GI50,OVCAR-8,0.337 µM (active)
same,GI50,SNB-19,0.637 µM (active)
same,GI50,SW-620,0.0379 µM (active)
same,GI50,MDA-MB-435,0.274 µM (active)
same,GI50,SK-MEL-28,0.0627 µM (active)
same,GI50,Malme-3M,0.0612 µM (active)
same,GI50,MCF7,0.124 µM (active)
same,GI50,SK-OV-3,0.101 µM (active)
same,GI50,TK-10,0.201 µM (active)
same,GI50,UACC-257,0.0975 µM (active)
same,GI50,A498,0.944 µM (active)
same,GI50,IGROV-1,0.498 µM (active)
same,GI50,OVCAR-3,1.65 µM (inactive)
same,GI50,RXF 393,1.56 µM (inactive)
same,GI50,MDA-MB-231,0.318 µM (active)
same,GI50,SK-MEL-2,0.129 µM (active)
same,GI50,Hs-578T,3.03 µM (inactive)
same,GI50,UO-31,2.94 µM (inactive)
same,GI50,SN12C,0.0809 µM (active)
same,GI50,NCI-H23,0.0847 µM (active)
same,GI50,HOP-62,0.245 µM (active)
same,GI50,PC-3,0.411 µM (active)
same,GI50,SF-268,0.524 µM (active)
same,GI50,NCI-H226,0.551 µM (active)
same,GI50,MDA-N,0.118 µM (active)
same,GI50,NCI-H522,0.00678 µM (active)
